Results reported in US9718774B2, “Indole carboxamide derivatives as P2X7 receptor antagonist” (ACTELION PHARMACEUTICALS LTD, priority 2012, dated 2017).
Where a name gives a salt, the structure may show the parent alone.

Target: T1, human recombinant P2X7 receptor (Homo sapiens, UniProt Q99572)
T1 construct: expressed in transfected cells
T1 sequence (Q99572 1-595): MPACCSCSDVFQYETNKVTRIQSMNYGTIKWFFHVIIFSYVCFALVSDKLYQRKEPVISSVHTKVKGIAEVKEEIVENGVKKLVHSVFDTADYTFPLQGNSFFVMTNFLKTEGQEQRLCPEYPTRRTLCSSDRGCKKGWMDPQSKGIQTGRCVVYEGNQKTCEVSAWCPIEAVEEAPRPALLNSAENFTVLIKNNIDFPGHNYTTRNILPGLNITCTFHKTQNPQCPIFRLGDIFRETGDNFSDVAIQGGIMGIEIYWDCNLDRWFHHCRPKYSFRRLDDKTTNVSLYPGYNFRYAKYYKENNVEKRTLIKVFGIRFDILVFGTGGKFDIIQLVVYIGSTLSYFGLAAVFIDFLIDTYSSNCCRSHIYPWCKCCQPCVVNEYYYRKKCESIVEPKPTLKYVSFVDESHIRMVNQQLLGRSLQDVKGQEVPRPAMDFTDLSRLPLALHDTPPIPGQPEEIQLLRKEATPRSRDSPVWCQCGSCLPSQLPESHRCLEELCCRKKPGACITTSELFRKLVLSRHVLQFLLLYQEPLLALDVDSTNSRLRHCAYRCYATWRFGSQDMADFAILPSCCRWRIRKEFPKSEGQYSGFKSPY
Test: YO-PRO assay: P2X7 receptor antagonistic activity in HEK cells stably expressing P2X7
Type: cell-based
Conditions: antagonistic activity with respect to the P2X7 receptor, read-out: IC50
Method in brief: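 HEK cells stably transfected with human P2X7 (cloned from blood cDNA) were loaded with 0.5 μM YO-PRO-1. They were exposed to antagonist (10 concentrations, top 10 μM, 1/3 steps, duplicate) together with 250 μM ATP for 90 min, and dye uptake was read by FLIPR at ex 485/em 530. IC50 from maximum fluorescence versus concentration.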

Row | SMILES | IC50 [nM]
1 | CC(C)(C)OC(=O)N1CCC(C(CNC(=O)c2ccc3[nH]ccc3c2Cl)c2cccnc2)CC1 (racemic) [Example 19, rac-4-{2-[(4-Chloro-1H-indole-5-carbonyl)-amino]-1-pyridin-3-yl-ethyl}-piperidine-1-carboxylic acid tent-butyl ester] | 35
2 | O=C(NCC(c1cnc(C(F)(F)F)nc1)N1CCC(F)(F)CC1)c1ccc2[nH]ccc2c1Cl (racemic) [Example 8, rac-4-Chloro-1H-indole-5-carboxylic acid [2-(4,4-difluoro-piperidin-1-yl)-2-(2-trifluoromethyl-pyrimidin-5-yl)-ethyl]-amide] | 12
3 | Cc1ncc(C(CNC(=O)c2cc(C)c3[nH]ccc3c2C(F)(F)F)N2CCOCC2)cn1 (racemic) [Example 103, rac-7-Methyl-4-trifluoromethyl-1H-indole-5-carboxylic acid [2-(2-methyl-pyrimidin-5-yl)-2-morpholin-4-yl-ethyl]-amide] | 26
4 | Cc1ncc(C(CNC(=O)c2cc(OCCO)c3[nH]ccc3c2Cl)N2CCOCC2)cn1 (racemic) [Example 113, rac-4-Chloro-7-(2-hydroxy-ethoxy)-1H-indole-5-carboxylic acid [2-(2-methyl-pyrimidin-5-yl)-2-morpholin-4-yl-ethyl]-amide] | 21
5 | Cc1ncc(C(CNC(=O)c2ccc3[nH]ccc3c2Cl)C2CCC(F)(F)CC2)cn1 (racemic) [Example 93, rac-4-Chloro-1H-indole-5-carboxylic acid [2-(4,4-difluoro-cyclohexyl)-2-(2-methyl-pyrimidin-5-yl)-ethyl]-amide] | 12
6 | Cc1ncc(C(CNC(=O)c2ccc3[nH]ccc3c2C)N2CCOCC2)cn1 (racemic) [Example 100, rac-4-Methyl-1H-indole-5-carboxylic acid [2-(2-methyl-pyrimidin-5-yl)-2-morpholin-4-yl-ethyl]-amide] | 19
7 | Cc1ncc(C(CNC(=O)c2ccc3[nH]ccc3c2Cl)C2CCOCC2)cn1 (racemic) [Example 51, rac-4-Chloro-1H-indole-5-carboxylic acid [2-(2-methyl-pyrimidin-5-yl)-2-(tetrahydro-pyran-4-yl)-ethyl]-amide] | 16
8 | Cc1ncc(C(CNC(=O)c2cc(C)c3[nH]ccc3c2Cl)N2CCOCC2)cn1 (single isomer, unassigned) [Example 97, 4-Chloro-7-methyl-1H-indole-5-carboxylic acid [2-(2-methyl-pyrimidin-5-yl)-2-morpholin-4-yl-ethyl]-amide] | 10
9 | COc1cc(C(=O)NCC(c2cnc(C)nc2)N2CCOCC2)c(Cl)c2cc[nH]c12 (single isomer, unassigned) [Example 114, 4-Chloro-7-methoxy-1H-indole-5-carboxylic acid [2-(2-methyl-pyrimidin-5-yl)-2-morpholin-4-yl-ethyl]-amide] | 14
10 | CC(=O)c1cc(C(=O)NCC(c2cnc(C)nc2)N2CCOCC2)c(Cl)c2cc[nH]c12 (racemic) [Example 102, rac-7-Acetyl-4-chloro-1H-indole-5-carboxylic acid [2-(2-methyl-pyrimidin-5-yl)-2-morpholin-4-yl-ethyl]-amide] | 33
11 | Cc1ncc(C(CNC(=O)c2ccc3[nH]ccc3c2Cl)OC2CCOCC2)cn1 (racemic) [Example 70, rac-4-Chloro-1H-indole-5-carboxylic acid [2-(2-methyl-pyrimidin-5-yl)-2-(tetrahydro-pyran-4-yloxy)-ethyl]-amide] | 91
12 | Cc1ncc(C(CNC(=O)c2ccc3[nH]ccc3c2Cl)N(C)CC(C)C)cn1 (racemic) [Example 86, rac-4-Chloro-1H-indole-5-carboxylic acid [2-(isobutyl-methyl-amino)-2-(2-methyl-pyrimidin-5-yl)-ethyl]-amide] | 280

Second part, the compound after the results:

Row | IC50 [nM] | SMILES
13 | 187 | O=C(NCC(c1ccc(Oc2ccccc2)cc1)N1CCCCC1)c1ccc2[nH]ccc2c1Cl (racemic) [Example 57, rac-4-Chloro-1H-indole-5-carboxylic acid [2-(4-phenoxy-phenyl)-2-piperidin-1-yl-ethyl]-amide]
14 | 15 | O=C(NCC(c1ccc(Cl)cc1)N1CCOCC1)c1ccc2[nH]ccc2c1Cl (racemic) [Example 38, rac-4-Chloro-1H-indole-5-carboxylic acid [2-(4-chloro-phenyl)-2-morpholin-4-yl-ethyl]-amide]
15 | 9.2 | O=C(NCC(c1ccc(F)cc1)N1CCOCC1)c1ccc2[nH]ccc2c1Cl (racemic) [Example 17, rac-4-Chloro-1H-indole-5-carboxylic acid [2-(4-fluoro-phenyl)-2-morpholin-4-yl-ethyl]-amide]
16 | 265 | O=C(NCC(c1ccc(F)cn1)N1CCOCC1)c1ccc2[nH]ccc2c1Cl (racemic) [Example 36, rac-4-Chloro-1H-indole-5-carboxylic acid [2-(5-fluoro-pyridin-2-yl)-2-morpholin-4-yl-ethyl]-amide]
17 | 1300 | O=C(NCC(c1c(F)cc(F)cc1F)N1CCCCC1)c1ccc2[nH]ccc2c1Cl (racemic) [Example 30, rac-4-Chloro-1H-indole-5-carboxylic acid [2-piperidin-1-yl-2-(2,4,6-trifluoro-phenyl)-ethyl]-amide]
18 | 193 | O=C(NCC(c1ccnc(O)c1)N1CCCCC1)c1ccc2[nH]ccc2c1Cl (racemic) [Example 74, rac-4-Chloro-1H-indole-5-carboxylic acid [2-(2-hydroxypyridin-4-yl)-2-piperidin-1-yl-ethyl]-amide]
19 | 4.3 | O=C(NCC(c1ccc(Cl)nc1)N1CCC(F)(F)CC1)c1ccc2[nH]ccc2c1Cl (racemic) [Example 2, rac-4-Chloro-1H-indole-5-carboxylic acid [2-(6-chloro-pyridin-3-yl)-2-(4,4-difluoro-piperidin-1-yl)-ethyl]-amide]
20 | 73 | O=C(NCC(c1ccc(Cl)cc1F)N1CCOCC1)c1ccc2[nH]ccc2c1Cl (racemic) [Example 40, rac-4-Chloro-1H-indole-5-carboxylic acid [2-(4-chloro-2-fluoro-phenyl)-2-morpholin-4-yl-ethyl]-amide]
21 | 258 | Cc1ncc(C(CNC(=O)c2ccc3[nH]ccc3c2Cl)N2CCC(C(=O)OC(C)(C)C)CC2)cn1 (racemic) [Example 75, rac-1-[2-[(4-Chloro-1H-indole-5-carbonyl)-amino]-1-(2-methyl-pyrimidin-5-yl)-ethyl]-piperidine-4-carboxylic acid tert-butyl ester]
22 | 584 | CN1CCC(C(CNC(=O)c2ccc3[nH]ccc3c2Cl)c2cccnc2)CC1 (racemic) [Example 21, rac-4-Chloro-1H-indole-5-carboxylic acid [2-(1-methyl-piperidin-4-yl)-2-pyridin-3-yl-ethyl]-amide formic acid salt]
23 | 98 | Cc1ncc(C(CNC(=O)c2ccc3[nH]ccc3c2Cl)N2CCS(=O)(=O)CC2)cn1 (racemic) [Example 92, rac-4-Chloro-1H-indole-5-carboxylic acid [2-(1,1-dioxo-thiomorpholin-4-yl)-2-(2-methyl-pyrimidin-5-yl)-ethyl]-amide]
24 | 1620 | O=C(NCC(c1cccnn1)N1CCOCC1)c1ccc2[nH]ccc2c1Cl (racemic) [Example 90, rac-4-Chloro-1H-indole-5-carboxylic acid (2-morpholin-4-yl-2-pyridazin-3-yl-ethyl)-amide]
